{"source": "patent US10722512B2", "about": "“Combinations of histone deacetylase inhibitors and either HER2 inhibitors or PI3K inhibitors” (Acetylon Pharmaceuticals, Inc., priority 2013, dated 2020)", "key": {"[1]": {"test_system": "Her2 protein, p-EGFR, p-AKT in MDA-MB-453", "test": "Her2 protein, p-EGFR and p-AKT levels after treatment", "assay_type": "cell-based", "conditions": "Her2+ breast cancer cell line MDA-MB-453"}, "[2]": {"test": "Potentiation of PI3K inhibitor GDC-0941 by HDAC6 selective inhibitors (Example 7)", "assay_type": "cell-based", "conditions": "non-cytotoxic concentrations of the HDAC6 inhibitor"}, "[3]": {"test_system": "panel of nearly 100 human tumor cell lines", "test": "Anti-tumor activity in a panel of nearly 100 human tumor cell lines", "assay_type": "cell-based", "conditions": "Her2+ breast cancer cells versus other major cancer types"}, "ZR-75-1": {"test_system": "ZR-75-1", "test": "Breast cancer cell viability, 48 hours, MTA assay", "assay_type": "cell-based", "conditions": "Homo sapiens, ZR-75-1, 48 h", "description": "(§1) Cell viabilities were used to calculate “Fraction Affected” (Fa) and “Combination Index” (CI) values using the Chou-Talalay method. Any combination with a CI value<0.70 at a Fa value between 0.25 and 0.75 was defined as positive synergy."}, "MDA-MB-436": {"test_system": "MDA-MB-436", "test": "Breast cancer cell viability, 48 hours, MTA assay", "assay_type": "cell-based", "conditions": "Homo sapiens, MDA-MB-436, 48 h", "description": "as §1"}, "Bcap-37": {"test_system": "Bcap-37", "test": "Breast cancer cell viability, 48 hours, MTA assay", "assay_type": "cell-based", "conditions": "Homo sapiens, Bcap37, 48 h", "description": "as §1"}, "BT-549": {"test_system": "BT-549", "test": "Breast cancer cell viability, 48 hours, MTA assay", "assay_type": "cell-based", "conditions": "Homo sapiens, BT-549, 48 h", "description": "as §1"}, "HCC1937": {"test_system": "HCC1937", "test": "Breast cancer cell viability, 48 hours, MTA assay", "assay_type": "cell-based", "conditions": "Homo sapiens, HCC1937, 48 h", "description": "as §1"}, "MDA-MB-361": {"test_system": "MDA-MB-361", "test": "Breast cancer cell viability, 48 hours, MTA assay", "assay_type": "cell-based", "conditions": "Homo sapiens, MDA-MB-361, 48 h", "description": "as §1"}, "MDA-MB-468": {"test_system": "MDA-MB-468", "test": "Breast cancer cell viability, 48 hours, MTA assay", "assay_type": "cell-based", "conditions": "Homo sapiens, MDA-MB-468, 48 h", "description": "as §1"}, "BT474": {"test_system": "BT474", "test": "Breast cancer cell viability, 48 hours, MTA assay", "assay_type": "cell-based", "conditions": "Homo sapiens, BT-474, 48 h", "description": "as §1"}, "Hs578T": {"test_system": "Hs578T", "test": "Breast cancer cell viability, 48 hours, MTA assay", "assay_type": "cell-based", "conditions": "Homo sapiens, Hs-578T, 48 h", "description": "as §1"}, "MDA-MB-231": {"test_system": "MDA-MB-231", "test": "Breast cancer cell viability, 48 hours, MTA assay", "assay_type": "cell-based", "conditions": "Homo sapiens, MDA-MB-231, 48 h", "description": "as §1"}, "HCC38": {"test_system": "HCC38", "test": "Breast cancer cell viability, 48 hours, MTA assay", "assay_type": "cell-based", "conditions": "Homo sapiens, HCC38, 48 h", "description": "as §1"}, "T-47D*": {"test_system": "T-47D*", "test": "Breast cancer cell viability, 48 hours, MTA assay", "assay_type": "cell-based", "conditions": "Homo sapiens, T47D, 48 h", "description": "as §1"}, "MX-1": {"test_system": "MX-1", "test": "Breast cancer cell viability, 48 hours, MTA assay", "assay_type": "cell-based", "conditions": "Homo sapiens, MX1, 48 h", "description": "as §1"}, "MDA-MB-453 [4]": {"test_system": "MDA-MB-453", "test": "Breast cancer cell viability, 48 hours, MTA assay", "assay_type": "cell-based", "conditions": "Homo sapiens, MDA-MB-453, 48 h", "description": "as §1"}, "SK-BR-3": {"test_system": "SK-BR-3", "test": "Breast cancer cell viability, 48 hours, MTA assay", "assay_type": "cell-based", "conditions": "Homo sapiens, SK-BR-3, 48 h", "description": "as §1"}, "MCF-7": {"test_system": "MCF-7", "test": "Breast cancer cell viability, 48 hours, MTA assay", "assay_type": "cell-based", "conditions": "Homo sapiens, MCF7, 48 h", "description": "as §1"}, "BT-474": {"test_system": "BT-474", "test": "Potentiation effect of HDAC6 inhibitors on Her2+ breast cancer cell lines", "assay_type": "cell-based", "conditions": "for cytotoxicity of HDAC6 inhibitor alone: BT-474, at the tested concentrations", "procedure": "(§2) The IC50 (Inhibitory Concentration at which 50% of the cells are viable) values of these 4 anti-breast cancer compounds were calculated in the presence of increasing concentrations of a HDAC6 inhibitor."}, "MDA-MB-453 [5]": {"test_system": "MDA-MB-453", "test": "Potentiation effect of HDAC6 inhibitors on Her2+ breast cancer cell lines", "assay_type": "cell-based", "conditions": "for cytotoxicity of HDAC6 inhibitor alone: MDA-MB-453, at the tested concentrations", "procedure": "as §2"}, "[6]": {"test_system": "A549 and MDA-MB-231 cancer cells", "test": "Migration assay", "assay_type": "cell-based", "conditions": "in the presence or absence of epidermal growth factor (EGF)", "procedure": "Many cultured cancer cells are able to migrate across a membrane and this activity indicates the metastatic potential of the cancer cells. The migration of two cancer cells, A549 and MDA-MB-231, were compared in the presence or absence of a HDAC6 inhibitor. The cancer cells were seeded and grown on a membrane surface, and the cell numbers on the other side of the membrane were counted under a microscope after 12 hours. […] In the study, an HDAC inhibitor was added to the cells either 2 hours before or when the migration was measured. The effect of HDAC6 inhibitor on Epidermal Growth Factor (EGF) stimulated cancer cell migration using 20 ng/ml of EGF in the assay was investigated.\nThe protocol for the Migration Assay was as follows. The compounds were prepared in DMSO at 400× stock of the final required concentrations.\n200 μl of warm basal RPMI1640 medium was added to the interior of the inserts, allowed to rehydrate for 2 hours in a humidified tissue culture incubator at 37° C., 5% CO2 atmosphere. […] The number of migrated cells were counted under a microscope in five fields at 100× magnification. The viable cells were seeded in the 96 well plate with the same treatment as in the migration assay were measured using CTG (Cell Titer Glow)."}, "HDAC6": {"target": "T1, HDAC6 (Homo sapiens, UniProt Q9UBN7)", "T1 construct": "purchased BPS Biosciences", "T1 sequence (Q9UBN7 whole entry)": "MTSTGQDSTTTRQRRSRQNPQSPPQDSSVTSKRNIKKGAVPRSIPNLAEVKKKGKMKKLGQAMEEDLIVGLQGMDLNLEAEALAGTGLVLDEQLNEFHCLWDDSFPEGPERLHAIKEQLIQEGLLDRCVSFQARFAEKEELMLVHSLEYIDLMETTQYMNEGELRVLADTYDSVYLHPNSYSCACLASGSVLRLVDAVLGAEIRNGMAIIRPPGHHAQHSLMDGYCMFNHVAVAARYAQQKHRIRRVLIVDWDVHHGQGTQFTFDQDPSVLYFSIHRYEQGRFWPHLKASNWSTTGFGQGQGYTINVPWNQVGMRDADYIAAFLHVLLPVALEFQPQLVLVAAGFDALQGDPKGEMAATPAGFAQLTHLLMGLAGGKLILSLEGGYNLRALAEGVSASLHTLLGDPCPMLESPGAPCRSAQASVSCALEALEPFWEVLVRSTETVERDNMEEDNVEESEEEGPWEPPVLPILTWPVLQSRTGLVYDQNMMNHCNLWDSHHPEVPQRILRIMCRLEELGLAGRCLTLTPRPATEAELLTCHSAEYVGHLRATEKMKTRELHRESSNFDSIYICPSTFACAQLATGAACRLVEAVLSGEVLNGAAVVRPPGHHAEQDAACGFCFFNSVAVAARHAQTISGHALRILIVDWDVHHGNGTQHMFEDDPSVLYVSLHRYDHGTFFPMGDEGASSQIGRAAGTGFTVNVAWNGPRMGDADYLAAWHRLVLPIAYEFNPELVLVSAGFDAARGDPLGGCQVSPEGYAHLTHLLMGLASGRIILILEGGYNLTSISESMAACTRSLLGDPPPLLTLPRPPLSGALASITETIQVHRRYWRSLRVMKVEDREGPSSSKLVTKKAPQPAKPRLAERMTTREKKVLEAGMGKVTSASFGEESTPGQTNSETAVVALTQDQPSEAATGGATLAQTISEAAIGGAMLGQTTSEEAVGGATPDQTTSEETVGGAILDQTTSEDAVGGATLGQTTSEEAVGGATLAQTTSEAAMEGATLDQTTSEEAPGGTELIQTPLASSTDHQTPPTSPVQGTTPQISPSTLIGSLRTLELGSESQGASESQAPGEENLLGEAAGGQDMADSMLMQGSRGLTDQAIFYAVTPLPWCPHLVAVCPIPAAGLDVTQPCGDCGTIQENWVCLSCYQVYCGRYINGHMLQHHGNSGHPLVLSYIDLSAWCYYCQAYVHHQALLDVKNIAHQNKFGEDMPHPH", "test": "HDAC enzyme assays", "assay_type": "biochemical", "procedure": "Compounds for testing were diluted in DMSO to 50 fold the final concentration and a ten point three fold dilution series was made. […] The final enzyme concentrations used in these assays were 3.3 ng/ml (HDAC1), 0.2 ng/ml (HDAC2), 0.08 ng/ml (HDAC3) and 2 ng/ml (HDAC6). […] The IC50 was determined using Graph Pad Prism by a four parameter curve fit."}}}
{"compound": "O=C(CCCCCCNC(=O)c1cnc(N(c2ccccc2)c2ccccc2)nc1)NO", "note": "[Compound A, 2-(diphenylamino)-N-(7-(hydroxyamino)-7-oxoheptyl) pyrimidine-5-carboxamide]", "values": [{"measurement": "Her2 protein, p-EGFR and p-AKT levels", "setting": "[1]", "result": "decrease of Her2 protein, p-EGFR, and p-AKT"}, {"measurement": "potentiation of GDC-0941 (decrease in the IC50 value)", "setting": "[2]", "result": "GDC-0941 becomes more potent"}, {"measurement": "sensitivity of Her2+ breast cancer cells within the panel", "setting": "[3]", "result": "among the most sensitive cells"}, {"measurement": "IC50", "setting": "ZR-75-1", "result": 3.57, "unit": "µM"}, {"measurement": "IC50", "setting": "MDA-MB-436", "result": 25.7, "unit": "µM"}, {"measurement": "IC50", "setting": "Bcap-37", "result": 7.66, "unit": "µM"}, {"measurement": "IC50", "setting": "BT-549", "result": 8.97, "unit": "µM"}, {"measurement": "IC50", "setting": "HCC1937", "result": 11.2, "unit": "µM"}, {"measurement": "IC50", "setting": "MDA-MB-361", "result": 4.51, "unit": "µM"}, {"measurement": "IC50", "setting": "MDA-MB-468", "result": 14.9, "unit": "µM"}, {"measurement": "IC50", "setting": "BT474", "result": 2.32, "unit": "µM"}, {"measurement": "IC50", "setting": "Hs578T", "result": 5.57, "unit": "µM"}, {"measurement": "IC50", "setting": "MDA-MB-231", "result": 7.49, "unit": "µM"}, {"measurement": "IC50", "setting": "HCC38", "result": 7.76, "unit": "µM"}, {"measurement": "IC50", "setting": "T-47D*", "result": 5, "unit": "µM"}, {"measurement": "IC50", "setting": "MX-1", "result": 6.38, "unit": "µM"}, {"measurement": "IC50", "setting": "MDA-MB-453 [4]", "result": 1.25, "unit": "µM"}, {"measurement": "IC50", "setting": "SK-BR-3", "result": 1.94, "unit": "µM"}, {"measurement": "IC50", "setting": "MCF-7", "result": 8.95, "unit": "µM"}, {"measurement": "cytotoxicity of HDAC6 inhibitor alone", "setting": "BT-474", "result": "not cytotoxic"}, {"measurement": "cytotoxicity of HDAC6 inhibitor alone", "setting": "MDA-MB-453 [5]", "result": "not cytotoxic"}]}
{"compound": "O=C(NO)c1cnc(NC2(c3cccc(F)c3)CCCCC2)nc1", "note": "[Compound C, 2-((1-(3-fluorophenyl)cyclohexyl)amino)-N-hydroxypyrimidine-5-carboxamide]", "values": [{"measurement": "cancer cell migration", "setting": "[6]", "result": "blocked cancer cell migration"}, {"measurement": "potency as HDAC6 selective inhibitor", "setting": "HDAC6", "result": "low nM potency"}, {"measurement": "potentiation of GDC-0941 (decrease in the IC50 value)", "setting": "[2]", "result": "GDC-0941 becomes more potent"}, {"measurement": "cytotoxicity of HDAC6 inhibitor alone", "setting": "BT-474", "result": "not cytotoxic"}, {"measurement": "sensitization to lapatinib and PI3K inhibitors", "setting": "BT-474; BT-474, lapatinib, IPI-145, GDC-0941 and CAL-101", "result": "able to sensitize"}, {"measurement": "cytotoxicity of HDAC6 inhibitor alone", "setting": "MDA-MB-453 [5]", "result": "not cytotoxic"}, {"measurement": "sensitization to lapatinib and PI3K inhibitors", "setting": "MDA-MB-453 [5]; MDA-MB-453, lapatinib, IPI-145, GDC-0941 and CAL-101", "result": "able to sensitize"}]}
